Measured values published in ChEMBL document CHEMBL1149058, “Further Chemical Studies of Mediterranean and Atlantic Hypselodoris Nudibranchs: A New Furanosesquiterpenoid from Hypsdodoris webbi” (J Nat Prod, 1994).

Assays:
[1] = system: Artemia salina; test: Toxicity against Artemia salina; format: organism-based; conditions: in vivo
[2] = system: Gambusia affinis; test: Ichthyotoxicity against Gambusia affinis at 10 ppm within 24 hrs; format: organism-based; conditions: in vivo

CC1=C[C@@H]2Cc3occc3C(C)(C)[C@@H]2C=C1
LD50 [1]: 1.52 ppm
Activity [2]: Toxic
